# Laboratory results published in patent publication EP0164904B1, “Method of determining an infusion rate profile and infusion device” (THE UNIVERSITY OF MELBOURNE, priority 1984, dated 1985).
# Key:
# [1] = Plasma Drug Efflux profile derived from actual infusion data (iterative infusion method, scaled to Lean Body Mass); format: in vivo, human subjects; conditions: Figure 9, after three iterations
# Excerpt: Central to the approach used in this method is the development of a new concept in pharmacokinetics, the Plasma Drug Efflux. This concept simply stated is that at any instant, if the plasma concentration of a drug is neither rising nor falling, the rate of delivery of the drug to the circulation ie. the infusion rate, must equate to the rate at which the drug is being lost from the circulation. It is - unimportant whether the loss is by distribution, metabolism or excretion.
# Then if drug is administered by some arbitrary infusion scheme Q(t), the plasma concentration is C(t) and the rate of drug loss from the plasma may be called the Plasma Drug Efflux, Ep(t).
# If the plasma drug concentration is constant so that the amount of drug is not changing then the instantaneous rate of drug influx to the plasma (the infusion rate), and the instantaneous concentration in the plasma may be used as an estimate of drug efflux from the plasma, is an estimate of i.e.: [drawing 1]
# The efflux estimate may then be plotted against time, and will essentially describe a dosing-rate/concentration profile as a function of time which will result in a plateau concentration for all time. […]
# [2] = Infusion generated from the Efflux profile; arterial plasma concentration followed over the infusion period; format: in vivo, patient
# Excerpt: Describing first the preferred method of defining a generalised infusion rate profile as applied to anaesthetic drugs, the method comprises the steps of: • (a) first determining the lean body mass (LBM) of a group of subjects. A convenient way of doing this in human subjects is to use the method described by Hallynck T.H. et al in "Should clearance be normalized to body surface of to lean body mass?" in British Journal of Clinical Pharmacology, p 523-526, Volume 11, (1981), who presented the following formulae:- Males: LBM = 1.10 x weight - 128 x (weight²/height²) Females: LBM = 1.07 x weight - 148 x (weight²/height²) • (b) Following administration of a suitable bolus dose of a desired drug to achieve unconsciousness, the drug is infused at an arbitrary but known rate throughout the infusion. […]
# [3] = plasma concentration, cited from earlier work
structure (smiles),measurement,setting,value
C=CCC1(C(C)C#CCC)C(=O)N=C(O)N(C)C1=O (centres unmarked) [methohexitone],shape of the Plasma Drug Efflux profile,[1],"bears little relationship to an exponential function, having two distinct humps"
same,arterial plasma drug concentrations,"[2]; infusion by Efflux profile of Figure 9 in a typical patient (Figure 10), over a period of five hours",constant and desired arterial plasma drug concentrations
same,departures from the desired level,"[2]; infusion by Efflux profile, many patients",no material departures from the desired level in any patient
same,concentration likely to result in wakening of the patient,[3]; fall to below,below 3 mg/l
same,concentration at which severe depression of the heart and breathing may occur,[3],10000 ng/mL
